What was measured:
[1] = Modulation of calcium release-activated calcium channel in human jurkat cells assessed as inhibition of PHA/PMA/ionomycin-stimulated IL2 production incubated 10 mins prior to PHA/PMA/ionomycin-challenge measured after 18 to 20 hrs; format: cell-based
[2] = Modulation of calcium release-activated calcium channel in human whole blood T cells assessed as inhibition of thapsigargin-stimulated IL2 production incubated 30 mins prior to thapsigargin-challenge measured after overnight incubation by AlphaLISA IL-2 assay; format: cell-based; conditions: T-cell
[3] = Modulation of calcium release-activated calcium channel in mitomycin C-stimulated human PBMC assessed as [3H]thymidine incorporation after 4 days by topcount scintillation counting analysis

| Structure (SMILES) | IC50 [1] [nM] | IC50 [2] [nM] | IC50 [3] [nM] |
| --- | --- | --- | --- |
| Cc1sc(-c2cccnc2)nc1-c1ccc2c(c1)OCC(c1c(F)cccc1F)N2 (stereo not drawn) | 30 | 430 | 190 |
| CCc1sc(-c2cccnc2)nc1-c1ccc2c(c1)OCC(c1c(F)cccc1F)N2 (stereo not drawn) | 30 | 520 | 100 |
| CCc1sc(-c2cnccn2)nc1-c1ccc2c(c1)OCC(c1c(F)cccc1F)N2 (stereo not drawn) | 20 | 870 | 180 |
| CCc1sc(-c2ccncc2)nc1-c1ccc2c(c1)OCC(c1c(F)cccc1F)N2 (stereo not drawn) | 20 | 320 | 440 |

Continued by falling IC50 [1], values first:

| IC50 [1] [nM] | IC50 [2] [nM] | IC50 [3] [nM] | Structure (SMILES) |
| --- | --- | --- | --- |
| 70 | 320 | 330 | CCn1nc(-c2cccnc2)cc1-c1ccc2c(c1)OCC(c1c(F)cccc1F)N2 (stereo not drawn) |
| 30 | 360 | 430 | CCc1sc(-c2cc(C)on2)nc1-c1ccc2c(c1)OCC(c1c(F)cccc1F)N2 (stereo not drawn) |

— ChEMBL document CHEMBL3091425, “Benzoxazine Derivatives As CRAC Modulators” (ACS Med Chem Lett, 2013)
